Reference: EP4682145A1, “BENZOHETEROCYCLIC COMPOUND, AND PREPARATION METHOD THEREFOR AND USE THEREOF” (Cascade Pharmaceuticals, Inc., priority 2023, dated 2024)

Experiments:
[1] = Pharmacokinetic evaluation in ICR mice (intravenous and gavage); type: in vivo; conditions: for CL_obs / Vss_obs / half-life: Intravenous Administration (5 mg/kg); for bioavailability: gavage 10 mg/kg versus intravenous 5 mg/kg
Method: The bioavailability and pharmacokinetic behavior of the compounds were evaluated in mice. 6 male ICR mice with similar body weights were selected, among which 3 mice were administered a single gavage dose of 10 mg/kg, and the other 3 mice were intravenously administered a single dose of 5 mg/kg. Blood samples were collected at 5 minutes (intravenous administration), 15 minutes, 30 minutes, 1 hour, 2 hours, 4 hours, and 7 hours after administration. The plasma samples were analyzed for concentration by LCMS/MS, and the pharmacokinetic parameters of the compounds were analyzed using the PKSolver free tool and non-compartmental analysis (NCA) software.
Experimental animals: Each compound test group included 6 healthy male ICR mice, weighing 18-25 g, purchased from Charles River, which were randomly divided into 2 groups with 3 mice each.
Preparation of formulations: A certain amount of the compound was weighed and added to 2% DMSO + 15% Solutol + 83% physiological saline to form a clear solution.
Dosage: ICR mice were fasted overnight and administered the compound at a dose of 10 mg/kg via gavage or 5 mg/kg via intravenous injection. The dosing volumes for gavage and intravenous administration were 10 mL/kg and 5 mL/kg, respectively. Uniform feeding was conducted 2 hours after administration.
Sample collection: Approximately 30 µL of blood was collected from the great saphenous vein at 5 minutes (intravenous administration), 15 minutes, 30 minutes, 1 hour, 2 hours, 4 hours, and 7 hours after administration. The blood was placed into commercially available tubes containing K2-EDTA. The blood samples were then centrifuged at 4°C and 4600 rpm for 5 minutes to obtain plasma samples. All plasma samples were rapidly frozen on dry ice and maintained at -70°C until LCMS/MS analysis was performed.
Sample preparation: 10 µL of plasma sample was aspirated and precipitated with a methanol solution containing 50 nmol/L of α-naphthoflavone (internal standard). The mixture was thoroughly mixed and centrifuged at 4°C and 14000 rpm for 5 minutes. Then, 75 µL of the supernatant was mixed with 75 µL of methanol for LCMS/MS analysis.

[2] = target: T1, human FFAR1 (GPR40) (Homo sapiens, UniProt O14842); assay: NFAT-RE-based reporter gene activity assay (Dual-Glo luciferase) for GPR40 agonistic activity in co-transfected HEK293T cells; type: cell-based; conditions: 4-hour treatment; for Efficacy (%): class symbols
T1 construct: Flag; expressed in transfected cells; host or cells: HEK293T
T1 sequence (O14842 whole entry): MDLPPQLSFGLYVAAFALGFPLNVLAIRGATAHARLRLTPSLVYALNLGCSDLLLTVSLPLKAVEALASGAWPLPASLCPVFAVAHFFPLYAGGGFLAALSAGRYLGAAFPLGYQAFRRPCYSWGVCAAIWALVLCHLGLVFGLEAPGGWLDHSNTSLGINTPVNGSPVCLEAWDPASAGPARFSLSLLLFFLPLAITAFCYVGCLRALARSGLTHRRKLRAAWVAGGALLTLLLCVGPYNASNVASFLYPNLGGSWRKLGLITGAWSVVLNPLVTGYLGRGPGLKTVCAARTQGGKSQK
In short: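 HEK293T cells co-transfected with human FFAR1, NFAT-RE firefly luciferase and TK-Renilla plasmids; 24 h later treated 4 h with 10 half-log compound dilutions from 1 µM. Firefly/Renilla ratio normalised to DMSO; EC50 from four-parameter fit.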

[3] = system: normal C57BL6/J mice; assay: Oral glucose tolerance test (OGTT) in normal C57BL6/J mice; type: in vivo; conditions: 1 mg/kg gavage, single dose; for AUC 0-120 minutes: blood glucose AUC
Method: Eighteen normal male C57BL6/J mice (8-9 weeks old) were selected and randomly divided into 3 groups based on body weight and blood glucose levels, with 6 mice in each group. On the day of the OGTT, fasting was initiated at 8:30 AM. At 11:30 AM, drug interventions were administered via gavage (vehicle control, compound 14, 1 mg/kg, and compound 169, 1 mg/kg). At 1:30 PM, glucose (2 g/kg) was administered via gavage, while the blank control group received the vehicle control orally (2% DMSO + 15% solutol + 83% DDW solution) at a dosing volume of 10 mL/kg. Blood glucose measurements during the OGTT were taken at the following time points: 0, 15, 30, 60, 90, and 120 minutes after glucose administration.
Blood glucose levels were measured at 0, 15, 30, 60, and 120 minutes after glucose administration. The area under the curve (AUC) for blood glucose over 120 minutes was calculated. [formula]
Note: BG0, BG15, BG30, BG60, BG90, and BG120 represent the blood glucose levels at 0, 15, 30, 60, 90, and 120 minutes after glucose administration, respectively.
(§1) Data were expressed as mean ± standard deviation. One-way ANOVA was employed for statistical analysis, with p < 0.05 considered statistically significant.

[4] = Tissue distribution evaluation in ICR mice; type: in vivo; conditions: oral gavage 5 mg/kg, 1 hour after administration
Method: Experimental protocol: The tissue distribution characteristics of the compounds were evaluated in mice. 2 male ICR mice with similar body weights were selected, and the compound was administered via oral gavage at a dose of 5 mg/kg. The animals were sacrificed at 1 hour, and blood, liver, and heart were collected. After sample processing, the concentration of the compounds in each matrix was analyzed by LCMS/MS, and the average values of each group were calculated to evaluate the tissue/plasma ratio of the compounds.
Experimental animals: 2 healthy male ICR mice were purchased from Charles River.
Preparation of formulations: A certain amount of the compound was weighed and added to 2% DMSO + 15% Solutol + 83% distilled water to form a clear solution.
Dosage: ICR mice were fasted overnight and administered the compound via oral gavage at a dose of 5 mg/kg. The volume of oral gavage administration was 10 mL/kg. Uniform feeding was conducted 2 hours after administration.
Sample collection: Animals were sacrificed 1 hour after administration, and blood, liver, and heart tissues were collected. The blood was placed into commercially available tubes containing K2-EDTA. The blood samples were then centrifuged at 4°C and 4600 rpm for 5 minutes to obtain plasma samples. All plasma and tissue samples were rapidly frozen on dry ice and maintained at -70°C until LCMS/MS analysis was performed.
Sample preparation: 50 µL of the plasma sample was aspirated, precipitated with methanol, thoroughly mixed, and centrifuged at 4°C and 14000 rpm for 5 minutes. Then, 75 µL of the supernatant was mixed with 75 µL of methanol for LCMS/MS analysis. Tissue samples were homogenized using methanol. After homogenization, the mixture was centrifuged at 14,000 rpm for 5 minutes at 4°C. Subsequently, 75 µL of the supernatant was mixed with 75 µL of methanol for LCMS/MS analysis.

[5] = system: normal male C57BL6/J mice; assay: In vivo hypoglycemia risk assay in fasted normal C57BL6/J mice; conditions: mouse, in vivo, po, 10 mg/kg
Method: The blank control group was orally administered with the vehicle control (2% DMO + 15% solutol + 83% DDW solution), with a dosing volume of 10 mL/kg. […] […] Data were expressed as mean ± standard deviation. One-way ANOVA was employed for statistical analysis, with p < 0.05 considered statistically significant.

[6] = system: C57BL6/J mice; assay: In vivo pharmacodynamic assay for non-alcoholic fatty liver disease (high-fat, high-cholesterol, high-fructose diet mice); conditions: 1 mpk oral gavage once daily for 28 days
Method: Normal male C57BL6/J mice ([…]) were fed a high-fat, high-cholesterol, high-fructose diet (D09100310, Research Diets) for 20 weeks. Based on body weight and biochemical data, the mice were randomly divided into groups, with 6 mice per group. The compound 169 (0.03, 0.1, and 0.6 mg/kg) was administered via oral gavage. The positive control was MGL3196 (1 mg/kg), and the blank control group consisted of mice of the same strain and age fed a normal diet for the same duration. The blank control and model control groups were given the vehicle (15% solutol + 85% DDW), totaling 6 groups. Administration was performed once daily for 28 days. After overnight fasting, on day 29 at the experimental endpoint, blood was collected from the heart after CO2 euthanasia. Serum ALT and AST biochemical indicators were measured, and liver tissue was harvested for hepatic hydroxyproline content determination.
Blood was collected using anticoagulant-free tubes, allowed to stand at room temperature for 30 minutes, and then centrifuged at 4000 rpm for 10 minutes to separate serum, which was tested by Dian Diagnostics. Approximately 50 mg of liver tissue was taken from each mouse and tested according to the hydroxyproline assay kit method (Nanjing Jiancheng, Cat. No.: A030-2-1).
as §1

[7] = mouse, plasma, po, Gavage Administration (10 mg/kg)
[8] = mouse, plasma, po, Gavage Administration (10 mg/kg), read-out: AUC0-7 h
[9] = male, ICR, mouse, plasma, po, Gavage Administration (10 mg/kg)

COc1cccc(N2CCC(c3oc4cc([C@@H](CC(=O)O)C5CC5)ccc4c3-c3cccc(C(C)(C)C)c3)CC2)c1 [Compound 12]
CL_obs [1]: 1.9 mL/min/kg | Vss_obs [1]: 520 mL/kg | half-life ([1]; mouse, plasma): 301 min | Cmax [1, 7]: 6580 ng/mL | Tmax [1, 7]: 2 h | AUC(0-t) at 7 h [1, 8]: 38000 ng·h/mL | bioavailability ([1]; mouse, plasma, po): 44.6% | EC50 [2]: 10 to 100 nM | Efficacy (%) [2]: †† (150 ≥ Efficacy (%) > 100)

COc1cccc(N2CCC(c3oc4cc([C@@H](CC(=O)O)C5CC5)ccc4c3-c3ccc(C(C)(C)C)cc3)CC2)c1 [Compound 14]
Blood Glucose ([3]; 0 minutes after glucose (2 g/kg)): 7.58 ± 0.59 mmol/L | Blood Glucose ([3]; 15 minutes after glucose (2 g/kg)): 11.08 ± 2.04 mmol/L | Blood Glucose ([3]; 30 minutes after glucose (2 g/kg)): 9.17 ± 1.37 mmol/L | Blood Glucose ([3]; 60 minutes after glucose (2 g/kg)): 7.6 ± 1.34 mmol/L | Blood Glucose ([3]; 90 minutes after glucose (2 g/kg)): 6.52 ± 2 mmol/L | Blood Glucose ([3]; 120 minutes after glucose (2 g/kg)): 5.87 ± 1.13 mmol/L | AUC 0-120 minutes ([3]; 1 mg/kg): 941±62.00 | AUC 0-120 minutes ([3]; listed as compound 14, 1 mg/kg): significantly reduced | EC50 [2]: 10 to 100 nM | Efficacy (%) [2]: ††† (Efficacy (%) > 150)

COc1cccc(N2CCC(c3oc4cc([C@@H](CC(=O)O)C5CC5)ccc4c3-c3cnn(C(C)(C)C)c3)CC2)c1 [Compound 38]
CL_obs [1]: 2.3 mL/min/kg | Vss_obs [1]: 405 mL/kg | half-life ([1]; mouse, plasma): 145 min | Cmax [1, 7]: 8600 ng/mL | Tmax [1, 7]: 2 h | AUC(0-t) at 7 h [1, 8]: 55400 ng·h/mL | bioavailability ([1]; mouse, plasma, po): 77.4% | EC50 [2]: 10 to 100 nM | Efficacy (%) [2]: ††† (Efficacy (%) > 150)

COc1ccc(F)c(N2CCC(c3oc4cc([C@@H](CC(=O)O)C5CC5)ccc4c3-c3cnn(C(C)(C)C)c3)CC2)c1 [Compound 89]
CL_obs [1]: 1.3 mL/min/kg | Vss_obs [1]: 546 mL/kg | half-life ([1]; male, ICR, mouse, plasma): 328 min | bioavailability ([1]; male, ICR, mouse, plasma, oral): 73.7% | Cmax [1, 9]: 11100 ng/mL | Tmax [1, 9]: 2 h | AUC(0-t) ([1]; male, ICR, mouse, plasma, po, Gavage Administration (10 mg/kg), read-out: AUC0-7 h): 92200 ng·h/mL | EC50 [2]: 100 to 500 nM | Efficacy (%) [2]: †† (150 ≥ Efficacy (%) > 100)

COc1ccc(F)c(N2CCC(c3oc4cc(C(CC(=O)O)C5CC5)ccc4c3-c3cccc(C(C)(C)C)c3)CC2)c1 (stereo not drawn) [Compound 165]
Plasma Concentration (ng/mL) or Tissue Concentration (ng/g): Blood [4]: 842 ng/mL | Plasma Concentration (ng/mL) or Tissue Concentration (ng/g): Heart [4]: 418 ng/g | Plasma Concentration (ng/mL) or Tissue Concentration (ng/g): Liver [4]: 1548 ng/g | Plasma Concentration (ng/mL) or Tissue Concentration (ng/g): Plasma [4]: 1290 ng/mL | EC50 [2]: 100 to 500 nM | Efficacy (%) [2]: ††† (Efficacy (%) > 150)

COc1ccc(F)c(N2CCC(c3oc4cc([C@@H](CC(=O)O)C5CC5)ccc4c3-c3cccc(C(C)(C)C)c3)CC2)c1 [Compound 166]
CL_obs [1]: 1.6 mL/min/kg | Vss_obs [1]: 668 mL/kg | half-life ([1]; mouse, plasma): 402 min | Cmax [1, 7]: 4950 ng/mL | Tmax [1, 7]: 4 h | AUC(0-t) at 7 h [1, 8]: 48100 ng·h/mL | bioavailability ([1]; mouse, plasma, po): 48% | EC50 [2]: 10 to 100 nM | Efficacy (%) [2]: †† (150 ≥ Efficacy (%) > 100)

COc1ccc(Cl)cc1C(=O)NCCc1ccc(S(=O)(=O)NC(=O)NC2CCCCC2)cc1 [Glibenclamide, reference compound]
AUC0-120 minutes (mmol*min) [5]: 492±50.30** mmol*min

CC(C)c1cc(Oc2c(Cl)cc(-n3nc(C#N)c(=O)[nH]c3=O)cc2Cl)n[nH]c1=O [MGL3196, reference compound]
Hepatic Hydroxyproline ([6]; liver): 173.63 ± 32.06 µg/g | Total Liver Hydroxyproline (µg/liver) ([6]; liver): 313.58±98.24 µg/liver | ALT (U/L) ([6]; serum): 140±63.06 U/L | AST (U/L) ([6]; serum): 242±67.42 U/L
